Source: ChEMBL document CHEMBL1201862, “PubChem BioAssay data set” (2004)
The source made the active and inactive calls.

Key:
[1] = A Cell Based Secondary Assay To Explore Cytotoxicity of Compounds that Sensitize Mycobacterium Tuberculosis to Beta-Lactam Antibiotics.; format: functional
[2] = molecular target: T1, Corticotropin-releasing factor receptor 2/Corticotropin-releasing factor-binding protein (Homo sapiens, UniProt P24387+Q13324); assay: activators of CRF receptor 2 with binding protein – uHTS hits, confirmation (AID 602473); format: functional; conditions: read-out: EC50_Mean
T1 sequence (Q13324 whole entry): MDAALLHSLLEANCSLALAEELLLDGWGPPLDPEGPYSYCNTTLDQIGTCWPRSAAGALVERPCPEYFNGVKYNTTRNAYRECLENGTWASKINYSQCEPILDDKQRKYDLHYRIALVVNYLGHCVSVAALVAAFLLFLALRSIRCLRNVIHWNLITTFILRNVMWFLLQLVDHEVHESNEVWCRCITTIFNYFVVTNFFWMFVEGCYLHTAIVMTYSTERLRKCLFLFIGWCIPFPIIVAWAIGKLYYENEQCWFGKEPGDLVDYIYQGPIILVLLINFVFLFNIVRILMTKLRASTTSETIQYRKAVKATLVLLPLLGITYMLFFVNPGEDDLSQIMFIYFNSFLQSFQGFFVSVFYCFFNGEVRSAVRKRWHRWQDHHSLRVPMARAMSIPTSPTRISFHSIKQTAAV
T1 sequence (P24387 whole entry): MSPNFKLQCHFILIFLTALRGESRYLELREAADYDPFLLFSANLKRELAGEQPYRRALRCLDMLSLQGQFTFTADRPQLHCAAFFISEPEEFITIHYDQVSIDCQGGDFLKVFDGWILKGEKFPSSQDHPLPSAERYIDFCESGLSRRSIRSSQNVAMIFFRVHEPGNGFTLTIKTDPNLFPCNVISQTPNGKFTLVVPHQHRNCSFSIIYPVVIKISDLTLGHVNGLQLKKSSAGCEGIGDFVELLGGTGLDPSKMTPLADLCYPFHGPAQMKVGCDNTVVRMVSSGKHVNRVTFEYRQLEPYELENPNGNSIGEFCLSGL

[3] = molecular target: Neurotensin receptor type 1 (Homo sapiens, UniProt P30989); format: functional;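 further: Image-based confirmatory dose-response assay measuring agonist activity at NTR1; NTR1-expressing U2OS osteosarcoma cells imaged for beta-arrestin GFP spot formation; agonist potency where compounds increase beta-arrestin recruitment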
Chain of Neurotensin receptor type 1 (P30989 whole entry): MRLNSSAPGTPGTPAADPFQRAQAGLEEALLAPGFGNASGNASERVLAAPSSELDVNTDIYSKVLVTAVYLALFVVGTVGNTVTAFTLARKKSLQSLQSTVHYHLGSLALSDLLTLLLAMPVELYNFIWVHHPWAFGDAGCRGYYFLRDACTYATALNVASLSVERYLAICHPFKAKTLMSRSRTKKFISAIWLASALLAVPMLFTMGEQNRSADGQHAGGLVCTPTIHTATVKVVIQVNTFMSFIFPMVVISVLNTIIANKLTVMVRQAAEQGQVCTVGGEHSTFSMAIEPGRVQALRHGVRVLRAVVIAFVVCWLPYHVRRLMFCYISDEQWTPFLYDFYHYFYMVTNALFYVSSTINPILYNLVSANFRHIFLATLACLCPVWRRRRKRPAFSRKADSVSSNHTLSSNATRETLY

Hexokinase = Hexokinase (Trypanosoma brucei, UniProt Q38C41); assay: Confirmation assay for inhibitors of Trypanosoma brucei hexokinase 1-Analogue-first series. [Related pubchem assays (depositor defined):AID1430, AID1632, AID2516, AID2560, AID2579, AID2600, AID449725, AID492951]; format: functional
Chain of Hexokinase (Q38C41 whole entry): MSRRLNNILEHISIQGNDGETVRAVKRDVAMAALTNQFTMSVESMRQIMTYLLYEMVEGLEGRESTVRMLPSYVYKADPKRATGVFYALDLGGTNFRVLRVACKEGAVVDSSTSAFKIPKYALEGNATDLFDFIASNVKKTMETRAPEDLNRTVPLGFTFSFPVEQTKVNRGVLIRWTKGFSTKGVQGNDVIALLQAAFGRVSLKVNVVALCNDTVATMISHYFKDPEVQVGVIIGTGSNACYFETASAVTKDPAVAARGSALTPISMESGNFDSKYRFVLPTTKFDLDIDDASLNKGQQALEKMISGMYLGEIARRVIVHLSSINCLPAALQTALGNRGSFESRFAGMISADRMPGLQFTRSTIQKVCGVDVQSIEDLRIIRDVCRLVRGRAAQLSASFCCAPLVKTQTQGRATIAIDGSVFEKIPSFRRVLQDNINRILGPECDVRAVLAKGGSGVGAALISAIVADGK

[4] = system: Streptococcus sp. 'group A'; assay: Streptococcus pyogenes SK(-)GAS viability under kanamycin – luminescence, BacTiterGlo, confirmation, counter-screen for streptokinase expression inhibitor project, dose response (AID 1900); format: functional, organism-based
NS3 = NS3 (Hepatitis C virus, UniProt A3EZJ3); assay: PubChem AID 2173; design: species or system Hepacivirus hominis
Chain of NS3 (A3EZJ3 whole entry): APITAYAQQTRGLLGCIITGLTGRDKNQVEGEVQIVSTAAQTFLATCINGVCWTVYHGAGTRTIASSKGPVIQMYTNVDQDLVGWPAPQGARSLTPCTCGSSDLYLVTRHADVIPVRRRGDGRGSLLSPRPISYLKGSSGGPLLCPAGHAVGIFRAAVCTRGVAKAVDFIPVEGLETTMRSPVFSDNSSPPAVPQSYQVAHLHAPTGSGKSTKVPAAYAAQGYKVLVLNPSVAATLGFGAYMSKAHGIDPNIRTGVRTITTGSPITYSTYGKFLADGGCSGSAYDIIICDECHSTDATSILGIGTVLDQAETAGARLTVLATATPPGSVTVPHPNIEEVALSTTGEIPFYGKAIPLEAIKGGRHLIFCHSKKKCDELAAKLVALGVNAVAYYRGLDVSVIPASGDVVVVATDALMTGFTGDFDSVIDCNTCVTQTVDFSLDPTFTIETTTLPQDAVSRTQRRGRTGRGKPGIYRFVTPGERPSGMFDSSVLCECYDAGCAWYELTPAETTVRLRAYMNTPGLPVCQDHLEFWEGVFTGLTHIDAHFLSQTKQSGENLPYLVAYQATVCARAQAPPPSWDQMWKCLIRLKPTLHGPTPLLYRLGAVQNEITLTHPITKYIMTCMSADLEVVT

Streptokinase A = molecular target: T2, Streptokinase A (Streptococcus pyogenes serotype M1, UniProt P10520); assay: viability-normalized secreted streptokinase activity reduction – plasminogen activation absorbance, OD405, dose response (AID 1914); format: functional, Streptococcus pyogenes M1 GAS;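 further: secreted streptokinase activity via plasminogen activation per viability signal from cell pellet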
T2 sequence (P10520 whole entry): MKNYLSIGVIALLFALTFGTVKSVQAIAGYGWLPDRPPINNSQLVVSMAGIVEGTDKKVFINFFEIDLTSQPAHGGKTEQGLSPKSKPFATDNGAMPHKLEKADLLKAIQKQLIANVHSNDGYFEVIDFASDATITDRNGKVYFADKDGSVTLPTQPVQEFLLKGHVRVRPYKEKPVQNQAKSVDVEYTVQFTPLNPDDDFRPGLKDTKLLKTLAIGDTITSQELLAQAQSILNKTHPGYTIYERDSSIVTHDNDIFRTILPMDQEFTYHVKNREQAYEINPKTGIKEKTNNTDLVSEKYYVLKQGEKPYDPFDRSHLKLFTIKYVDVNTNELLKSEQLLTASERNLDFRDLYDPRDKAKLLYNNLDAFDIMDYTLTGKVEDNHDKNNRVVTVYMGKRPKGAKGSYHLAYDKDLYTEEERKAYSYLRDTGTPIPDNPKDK

Streptococcus = assay: GAS UMAA2166 growth inhibition – luminescence, BacTiterGlo, counter-screen for streptokinase expression inhibitor project, dose response (AID 1915); format: functional, organism-based;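 further: potency for reduction of bacterial viability or growth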

SMILES: CCOC(=O)c1sc(Nc2nc3c(OC)cccc3s2)cc1C
- CC50 [1]: > 40 µM (active)

SMILES: CC1(C)CC(=O)C(=Cc2cn(-c3ccccc3)nc2-c2ccc(Cl)cc2)C(=O)C1
- EC50 [2]: > 53 µM (inactive)
- EC50 [3]: 35.3 µM (inactive)

SMILES: O=C(O)c1ccccc1NC(=O)c1ccccc1C(=O)O
- IC50 (Hexokinase): > 25 µM (inactive)

SMILES: COc1ccc(C(=O)NC(CC(=O)O)c2ccccc2)cc1 (stereo not given)
- IC50 (Hexokinase): > 25 µM (inactive)

SMILES: Cc1ccc(C(C)C)c(OCc2ccc(C(=O)N/N=C/c3ccc(C(=O)O)cc3)cc2)c1
- CC50 [1]: > 40 µM (active)

SMILES: Oc1c(Cl)cc(Cl)cc1/C=N/NC(=S)NC1CC2C=CC1C2 (stereo not given)
- EC50 [4]: 0.333 µM (active)
- IC50 (NS3): 8.21 µM (active)
- EC50 (Streptokinase A): 0.539 µM (active)
- EC50 (Streptococcus): 1.3 µM (active)
